Our source for the melting point values is patent publication US9216954B2, “Serine racemase inhibitor” (National University Corporation University of Toyama, priority 2012, dated 2015).

Structures are written as SMILES.

Consider `Cc1cccc(CC(=O)NNC(=S)NC(=O)Cc2ccccc2)c1` [LW-25, 2-Phenyl-N—[N′-(2-m-tolyl-acetyl)-hydrazinocarbothioyl]-acetamide], for which the melting point lay within 149 to 150 °C.

For `COc1cccc(CC(=O)NNC(=S)NC(=O)/C=C/c2cc(Br)cc(Br)c2)c1` [LW-26, 3-(3,5-Dibromo-phenyl)-N-{N′-[2-(3-methoxy-phenyl)-acetyl]-hydrazinocarbothioyl}-acrylamide], the melting point is 202 to 203 °C.

Molecule `O=C(Cc1c(F)cccc1F)NNC(=S)NC(=O)Cc1ccccc1` [LW-28, N-{N′-[2-(2,6-Difluoro-phenyl)-acetyl]-hydrazinocarbothioyl}-2-phenyl-acetamide] gave a melting point of 174 to 175 °C.

`O=C(Cc1cc(F)cc(F)c1)NNC(=S)NC(=O)Cc1ccccc1` [LW-29, N-{N′-[2-(3,5-Difluoro-phenyl)-acetyl]-hydrazinocarbothioyl}-2-phenyl-acetamide] displayed a melting point of 178 to 179 °C.

The molecule `O=C(CCc1ccccc1)NNC(=S)NC(=O)Cc1ccccc1` [LW-30, 2-Phenyl-N—[N′-(3-phenyl-propionyl)-hydrazinocarbothioyl]-acetamide] came in with a melting point of 88 to 90 °C.

For the molecule `O=C(/C=C/c1cc(Br)cc(Br)c1)NC(=S)NNC(=O)CCc1ccccc1` [LW-31, 3-(3,5-Dibromo-phenyl)-N—[N′-(3-phenyl-propionyl)-hydrazinocarbothioyl]acrylamide], the melting point is 213 to 214 °C.

In turn, `O=C(Cc1ccc(F)cc1)NNC(=S)NC(=O)Cc1ccc(F)cc1` [LW-32, 2-(4-Fluoro-phenyl)-N-{N′-[2-(4-fluoro-phenyl)-acetyl]-hydrazinocarbothioyl}-acetamide] yielded a melting point of 178 to 179 °C.

For `O=C(Cc1ccc(F)cc1)NNC(=S)NC(=O)Cc1c(F)cccc1F` [LW-33, 2-(2,6-Difluoro-phenyl)-N-{N′-[2-(4-fluoro-phenyl)-acetyl]-hydrazinocarbothioyl}-acetamide], the melting point fell in the range of 186 to 187 °C.

`O=C(Cc1ccc(F)cc1)NNC(=S)NC(=O)CC1CCCCC1` [LW-34, 2-Cyclohexyl-N-{N′-[2-(4-fluoro-phenyl)-acetyl]-hydrazinocarbothioyl}-acetamide] had a melting point of 132 to 133 °C.

Turning to `COc1ccc(NC(=O)CNC(=O)COc2ccccc2)c(C)c1` [MM-1, N-[(4-methoxy-2-methylphenylcarbamoyl)methyl]-2-phenoxyacetamide], the melting point was in the range of 165 to 166 °C.

In the case of `COc1ccc(NC(=O)CNC(=O)COc2ccc(Cl)cc2)c(C)c1` [MM-2, 2-(4-Chloro-phenoxy)-N-[(4-methoxy-2-methyl-phenylcarbamoyl)-methyl]-acetamide], the melting point lay within 170 to 171 °C.

`COc1ccc(NC(=O)CNC(=O)COc2ccc(Br)cc2)c(C)c1` [MM-3, 2-(4-Bromo-phenoxy)-N-[(4-methoxy-2-methyl-phenylcarbamoyl)-methyl]-acetamide]: the melting point was 159 to 160 °C.

Consider `O=C(COc1ccc(Cl)cc1)NCC(=O)Nc1ccc(I)cc1` [MM-4, 2-(4-Chloro-phenoxy)-N-[(4-iodo-phenylcarbamoyl)-methyl]-acetamide], for which the melting point lay in the range of 205 to 206 °C.

In the case of `O=C(COc1ccc(Br)cc1)NCC(=O)Nc1ccc(I)cc1` [MM-5, 2-(4-Bromo-phenoxy)-N-[(4-iodo-phenylcarbamoyl)-methyl]acetamide], the melting point was in the range of 211 to 212 °C.

`COc1ccc(NC(=O)CNC(=O)COc2ccc(F)cc2)c(C)c1` [MM-6, 2-(4-Fluoro-phenoxy)-N-[(4-methoxy-2-methyl-phenylcarbamoyl)-methyl]-acetamide] yielded a melting point of 169 to 170 °C.

As for `O=C(COc1ccc(F)cc1)NCC(=O)Nc1ccc(I)cc1` [MM-7, 2-(4-Fluoro-phenoxy)-N-[(4-iodo-phenylcarbamoyl)-methyl]-acetamide], the melting point was 190 to 191 °C.

`O=C(COc1ccc(Br)cc1)NCC(=O)Nc1ccc(F)cc1` [MM-8, 2-(4-Bromo-phenoxy)-N-[(4-fluoro-phenylcarbamoyl)-methyl]-acetamide] displayed a melting point of 213 to 214 °C.

Take `O=C(COc1ccc(F)cc1)NCC(=O)Nc1ccc(F)cc1` [MM-9, 2-(4-Fluoro-phenoxy)-N-[(4-fluoro-phenylcarbamoyl)-methyl]-acetamide]: the melting point fell in the range of 202 to 203 °C.

`O=C(COc1ccc(F)cc1)NCC(=O)Nc1ccc(Br)cc1` [MM-10, N-[(4-Bromo-phenylcarbamoyl)-methyl]-2-(4-fluoro-phenoxy)-acetamide] yielded a melting point of 192 to 193 °C.

In turn, `COc1ccc(NC(=O)CNC(=O)COc2ccc(Br)cc2)cc1` [MM-11, 2-(4-Bromo-phenoxy)-N-[(4-methoxy-phenylcarbamoyl)-methyl]acetamide] displayed a melting point of 190 to 191 °C.

In turn, `COc1ccc(NC(=O)CNC(=O)COc2ccc(F)cc2)cc1` [MM-12, 2-(4-Fluoro-phenoxy)-N-[(4-methoxy-phenylcarbamoyl)-methyl]-acetamide] yielded a melting point of 185 to 186 °C.

`O=C(COc1ccc(F)cc1)NCC(=O)NC1CCCCC1` [MM-14, N-Cyclohexylcarbamoylmethyl-2-(4-fluoro-phenoxy)-acetamide] came in with a melting point of 184 to 185 °C.

Take `O=C(COc1ccc(Br)cc1)NCC(=O)Nc1c(F)cccc1F` [MM-15, 2-(4-Bromo-phenoxy)-N-[(2,6-difluoro-phenylcarbamoyl)-methyl]-acetamide]: the melting point lay within 173 to 174 °C.

Consider `O=C(CNC(=O)COc1ccc(Br)cc1)NCc1ccccc1` [MM-16, N-(Benzylcarbamoyl-methyl)-2-(4-bromo-phenoxy)-acetamide], for which the melting point lay in the range of 195 to 196 °C.

The molecule `O=C(CNC(=O)COc1ccc(F)cc1)NCc1ccccc1` [MM-17, N-(Benzylcarbamoyl-methyl)-2-(4-fluoro-phenoxy)-acetamide] came in with a melting point of 165 to 166 °C.

`COc1ccc(OCC(=O)NCC(=O)Nc2ccc(OC)cc2C)cc1` [MM-18, N-[(4-Methoxy-2-methyl-phenylcarbamoyl)-methyl]-2-(4-methoxy-phenoxy)-acetamide] yielded a melting point of 143 to 144 °C.

In turn, `COc1cccc(OCC(=O)NCC(=O)Nc2ccc(OC)cc2C)c1` [MM-19, N-[(4-Methoxy-2-methyl-phenylcarbamoyl)-methyl]-2-(3-methoxy-phenoxy)-acetamide] returned a melting point of 115 to 116 °C.

For the molecule `O=C(COc1ccc(Cl)cc1)NCC(=O)Nc1c(F)cccc1F` [MM-20, 2-(4-Chloro-phenoxy)-N-[(2,6-difluoro-phenylcarbamoyl)-methyl]acetamide], the melting point fell in the range of 184 to 185 °C.

As to `O=C(COc1ccc(Oc2ccccc2)cc1)NCC(=O)Nc1c(F)cccc1F` [MM-21, N-[(2,6-Difluoro-phenylcarbamoyl)-methyl]-2-(4-phenoxy-phenoxy)-acetamide], the melting point lay in the range of 164 to 165 °C.

On to `Cc1cccc(OCC(=O)NCC(=O)Nc2c(F)cccc2F)c1` [MM-22, N-[(2,6-Difluoro-phenylcarbamoyl)-methyl]-2-m-tolyloxy-acetamide], for which the melting point lay within 161 to 162 °C.

As for `COc1ccc(OCC(=O)NCC(=O)Nc2c(F)cccc2F)cc1` [MM-23, N-[(2,6-Difluoro-phenylcarbamoyl)-methyl]-2-(4-methoxy-phenoxy)-acetamide], the melting point was 164 to 165 °C.

As to `O=C(COc1ccc(F)cc1)NCC(=O)Nc1c(F)cccc1F` [MM-24, N-[(2,6-Difluoro-phenylcarbamoyl)-methyl]-2-(4-fluoro-phenoxy)-acetamide], the melting point was in the range of 194 to 195 °C.

`O=C(COc1ccc(Br)cc1)NCC(=S)Nc1c(F)cccc1F` [MM-25, 2-(4-Bromo-phenoxy)-N-[(2,6-difluoro-phenylthiocarbamoyl)-methyl]-acetamide] came in with a melting point of 174 to 175 °C.

For the molecule `COc1ccc(OCC(=O)NCC(=S)Nc2c(F)cccc2F)cc1` [MM-26, N-[(2,6-Difluoro-phenylthiocarbamoyl)-methyl]-2-(4-methoxy-phenoxy)-acetamide], the melting point lay in the range of 160 to 161 °C.

Consider `Cc1ccccc1CNC(=O)CNC(=O)COc1ccc(Br)cc1` [MM-27, 2-(4-Bromo-phenoxy)-N-[(2-methyl-benzylcarbamoyl)-methyl]-acetamide], for which the melting point lay in the range of 174 to 175 °C.

In turn, `O=C(CNC(=O)COc1ccc(Br)cc1)NCc1ccc(Br)cc1` [MM-28, N-[(4-Bromo-benzylcarbamoyl)-methyl]-2-(4-bromo-phenoxy)-acetamide] came in with a melting point of 208 to 209 °C.

Consider `O=C(CNC(=O)COc1ccc(Br)cc1)NCc1ccc(Br)cc1F` [MM-29, N-[(4-Bromo-2-fluoro-benzylcarbamoyl)-methyl]-2-(4-bromo-phenoxy)-acetamide], for which the melting point was in the range of 179 to 180 °C.

Regarding `COc1ccc(OCC(=O)NCC(=O)Nc2cccc(Br)c2)cc1` [MM-31, N-[(3-Bromo-phenylcarbamoyl)-methyl]-2-(4-methoxy-phenoxy)-acetamide], the melting point was in the range of 174 to 175 °C.

In turn, `O=C(COc1ccc(Br)cc1)NCC(=O)Nc1cccc(Cl)c1` [MM-32, 2-(4-Bromo-phenoxy)-N-[(3-chloro-phenylcarbamoyl)-methyl]-acetamide] had a melting point of 205 to 206 °C.

In the case of `O=C(COc1ccc(Br)cc1)NCC(=O)Nc1cccc([N+](=O)[O-])c1` [MM-33, 2-(4-Bromo-phenoxy)-N-[(3-nitro-phenylcarbamoyl)-methyl]-acetamide], the melting point fell in the range of 197 to 198 °C.

`O=C(COc1ccc(OCc2ccccc2)cc1)NCC(=O)Nc1c(F)cccc1F` [MM-34, 2-(4-Benzyloxy-phenoxy)-N-[(2,6-difluoro-phenylcarbamoyl)-methyl]-acetamide] registered a melting point of 145 to 146 °C.

Turning to `O=C(COc1ccc(O)cc1)NCC(=O)Nc1c(F)cccc1F` [MM-35, N-[(2,6-difluorophenylcarbamoyl)methyl]-2-(4-hydroxyphenoxy)acetamide], the melting point fell in the range of 197 to 198 °C.

In turn, `Cc1cccc(OCC(=O)NCC(=O)Nc2ccc(I)cc2)c1` [MM-36, N-[(4-Iodo-phenylcarbamoyl)-methyl]-2-m-tolyloxy-acetamide] gave a melting point of 192 to 193 °C.

`Cc1cccc(OCC(=O)NCC(=O)Nc2ccc(O)cc2)c1` [MM-37, N-[(4-hydroxyphenylcarbamoyl)methyl]-2-m-tolyloxyacetamide] displayed a melting point of 186 to 187 °C.
